Like-named read-outs stand apart in the source and are kept apart here.
Assays:
Experiment in all cases: microbe, parasite or virus in culture
HIV strain Y181C = assay type: cell-based, HIV-1; details: for Y181C pEC50 (−log EC50): HIV strain Y181C, MT4 LTR-EGFP cells, three days after infection; for EC50: Human immunodeficiency virus 1, 72 h, read-out: Y181C pEC50 (−log EC50) (converted)
Source text: (§1) Image analysis allows very sensitive detection of viral infection.

HIV strain L100I + K103N = assay type: cell-based, HIV-1; details: for L100I + K103N pEC50 (−log EC50): HIV strain L100I + K103N, MT4 LTR-EGFP cells, three days after infection
Source text: as §1

HIV strain K103N + Y181C = assay type: cell-based, HIV-1; details: for K103N + Y181C pEC50 (−log EC50): HIV strain K103N + Y181C, MT4 LTR-EGFP cells, three days after infection; for EC50: Human immunodeficiency virus 1, 72 h, read-out: K103N + Y181C pEC50 (−log EC50) (converted)
Source text: as §1

[1] = tested on: HIV strain IIIB (wild type); details: for EC50: Human immunodeficiency virus 1, IIIB, 72 h, read-out: IIIB pEC50 (−log EC50) (converted)
Method: Compounds of the invention were tested for their potency against wild type virus and clinically isolated HIV strains harboring one or more mutations associated with resistance to reverse transcriptase inhibitors. Antiviral activity was evaluated using a cellular assay performed according to the following procedure.
The human T-cell line MT4 was engineered with Green Fluorescent Protein (GFP) and a HIV-specific promoter, HIV-1 long terminal repeat (LTR). This cell line, designated MT4 LTR-EGFP, can be used for the in vitro evaluation of anti-HIV activity of investigational compounds. In HIV-1 infected cells, the Tat protein is produced, which upregulates the LTR promotor and eventually leads to stimulation of the GFP reporter production, allowing to measure ongoing HIV-infection fluorometrically.
Analogously, MT4 cells were engineered with GFP and the constitutional cytomegalovirus (CMV) promotor. […] Cytotoxic investigational compounds reduce GFP levels of mock-infected MT4 CMV-EGFP cells.
The ratio of CC50 to EC50 is defined as the selectivity index (SI) and is an indication of the selectivity of the anti-HIV activity of the inhibitor. The ultimate monitoring of HIV-1 infection and cytotoxicity was done using a scanning microscope. Image analysis allows very sensitive detection of viral infection. Measurements were done before cell necrosis, which usually takes place about five days after infection, in particular measurements were performed three days after infection.
The columns IIIB, L100I, etc. in the table list the pEC50 (−log EC50) values against various strains IIIB, L100I, etc.; pSI lists the −log SI values.
Strain IIIB is wild type HIV strain.

[2] = target: HIV strain MDR (L100I, K103N, Y181C, E138G, V179I, L2214F, V278V/I and A327A/V in HIV reverse transcriptase); assay type: cell-based, HIV-1; details: for MDR pEC50 (−log EC50): MDR HIV strain (multiple RT mutations), MT4 LTR-EGFP cells, three days after infection; for EC50: Human immunodeficiency virus 1, 72 h, read-out: MDR pEC50 (−log EC50) (converted)
Source text: as §1
“MDR” refers to a strain that contains mutations L100I, K103N, Y181C, E138G, V179I, L2214F, V278V/I and A327A/V in HIV reverse transcriptase.

[3] = wild type HIV strain IIIB, MT4 LTR-EGFP cells, GFP fluorescence, three days after infection

In the case of C=CCNCc1cc(Nc2c(C)cc(C=CC#N)cc2C)nc(Nc2ccc(C#N)cc2)n1 (mixture of isomers) [Compound 24], the “Y181C pEC50 (−log EC50)” value (HIV strain Y181C) is reported as 8.14, the “L100I + K103N pEC50 (−log EC50)” value (HIV strain L100I + K103N) is reported as 7.31 and the “K103N + Y181C pEC50 (−log EC50)” value (HIV strain K103N + Y181C) is reported as 7.84. For the same compound, the “IIIB pEC50 (−log EC50)” value [1] was 9.16 and the “MDR pEC50 (−log EC50)” value [2] was 5.75.
In the case of Cc1cc(C=CC#N)cc(C)c1Nc1cc(CNCc2cccs2)nc(Nc2ccc(C#N)cc2)n1 (mixture of isomers) [Compound 31], the “Y181C pEC50 (−log EC50)” value (HIV strain Y181C) is reported as 7.48, the “L100I + K103N pEC50 (−log EC50)” value (HIV strain L100I + K103N) is reported as 7.13 and the “K103N + Y181C pEC50 (−log EC50)” value (HIV strain K103N + Y181C) is reported as 7.71. The “IIIB pEC50 (−log EC50)” value [1, 3] was 8.41 and the “MDR pEC50 (−log EC50)” value [2] was 5.48.
COc1ccccc1C(O)c1cc(Nc2c(C)cc(/C=C/C#N)cc2C)nc(Nc2ccc(C#N)cc2)n1 (stereo not shown) [Compound 3] was tested, and the EC50 (HIV strain Y181C) was 0.105 µM, the EC50 (HIV strain L100I + K103N; Human immunodeficiency virus 1, 72 h, read-out: L100I + K103N pEC50 (−log EC50) (converted)) was 0.0955 µM and the EC50 (HIV strain K103N + Y181C) was 0.263 µM. The EC50 [1] was 0.00724 µM and the EC50 [2] was 2.95 µM.
For Cc1cc(C=CC#N)cc(C)c1Nc1cc(CNCCc2ccc(S(N)(=O)=O)cc2)nc(Nc2ccc(C#N)cc2)n1 (mixture of isomers) [Compound 17], the “Y181C pEC50 (−log EC50)” value (HIV strain Y181C) was 7.01, the “L100I + K103N pEC50 (−log EC50)” value (HIV strain L100I + K103N) was 6.41 and the “K103N + Y181C pEC50 (−log EC50)” value (HIV strain K103N + Y181C) was 7.04. For the same compound, the “IIIB pEC50 (−log EC50)” value [1, 3] was 7.80 and the “MDR pEC50 (−log EC50)” value [2] was 5.56.
For Cc1cc(C=CC#N)cc(C)c1Nc1cc(CNCCCN2CCOCC2)nc(Nc2ccc(C#N)cc2)n1 (mixture of isomers) [Compound 29], the “Y181C pEC50 (−log EC50)” value (HIV strain Y181C) was 7.06, the “L100I + K103N pEC50 (−log EC50)” value (HIV strain L100I + K103N) was 6.66 and the “K103N + Y181C pEC50 (−log EC50)” value (HIV strain K103N + Y181C) was 7.01. For the same compound, the “IIIB pEC50 (−log EC50)” value [1, 3] was 7.70 and the “MDR pEC50 (−log EC50)” value [2] was 5.67.
Cc1cc(C=CC#N)cc(C)c1Nc1cc(CN(C)CC#N)nc(Nc2ccc(C#N)cc2)n1 [Compound 21] was tested, and the “Y181C pEC50 (−log EC50)” value (HIV strain Y181C) was 7.73, the “L100I + K103N pEC50 (−log EC50)” value (HIV strain L100I + K103N) was 7.16 and the “K103N + Y181C pEC50 (−log EC50)” value (HIV strain K103N + Y181C) was 7.71. For the same compound, the “IIIB pEC50 (−log EC50)” value [1, 3] was 8.47 and the “MDR pEC50 (−log EC50)” value [2] was 5.70.
In the case of Cc1cc(C=CC#N)cc(C)c1Nc1cc(CNCC2CCCO2)nc(Nc2ccc(C#N)cc2)n1 (mixture of isomers) [Compound 28], the “Y181C pEC50 (−log EC50)” value (HIV strain Y181C) is reported as 7.81, the “L100I + K103N pEC50 (−log EC50)” value (HIV strain L100I + K103N) is reported as 7.27 and the “K103N + Y181C pEC50 (−log EC50)” value (HIV strain K103N + Y181C) is reported as 7.82. The “IIIB pEC50 (−log EC50)” value [1, 3] was 8.68 and the “MDR pEC50 (−log EC50)” value [2] was 5.68.
With Cc1cc(/C=C/C#N)cc(C)c1Nc1cc(CNCc2cccnc2)nc(Nc2ccc(C#N)cc2)n1 [Compound 27] the EC50 (HIV strain Y181C) was 0.0162 µM, the EC50 (HIV strain K103N + Y181C) was 0.00309 µM and the EC50 [1] was 0.0038 µM. For the same compound, the EC50 [2] was 1.17 µM.
In the case of COCC(C)NCc1cc(Nc2c(C)cc(C=CC#N)cc2C)nc(Nc2ccc(C#N)cc2)n1 (mixture of isomers) [Compound 23], the “Y181C pEC50 (−log EC50)” value (HIV strain Y181C) is reported as 7.72, the “L100I + K103N pEC50 (−log EC50)” value (HIV strain L100I + K103N) is reported as 6.98 and the “K103N + Y181C pEC50 (−log EC50)” value (HIV strain K103N + Y181C) is reported as 7.78. For the same compound, the “IIIB pEC50 (−log EC50)” value [1, 3] was 8.80 and the “MDR pEC50 (−log EC50)” value [2] was 5.67.
For Cc1cc(/C=C/C#N)cc(C)c1Nc1cc(COC(N)=O)nc(Nc2ccc(C#N)cc2)n1 [Compound 33], the “Y181C pEC50 (−log EC50)” value (HIV strain Y181C) was 7.70, the “L100I + K103N pEC50 (−log EC50)” value (HIV strain L100I + K103N) was 7.10 and the “K103N + Y181C pEC50 (−log EC50)” value (HIV strain K103N + Y181C) was 8.00. The “IIIB pEC50 (−log EC50)” value [1, 3] was 8.40 and the “MDR pEC50 (−log EC50)” value [2] was 6.20.
With CC(=O)NCCNCc1cc(Nc2c(C)cc(C=CC#N)cc2C)nc(Nc2ccc(C#N)cc2)n1 (mixture of isomers) [Compound 22] the “Y181C pEC50 (−log EC50)” value (HIV strain Y181C) was 7.09, the “L100I + K103N pEC50 (−log EC50)” value (HIV strain L100I + K103N) was 6.35 and the “K103N + Y181C pEC50 (−log EC50)” value (HIV strain K103N + Y181C) was 7.02. The “IIIB pEC50 (−log EC50)” value [1, 3] was 7.93 and the “MDR pEC50 (−log EC50)” value [2] was 5.50.
Cc1cc(C=CC#N)cc(C)c1Nc1cc(Cn2ccnc2)nc(Nc2ccc(C#N)cc2)n1 (mixture of isomers) [Compound 19] was tested, and the “Y181C pEC50 (−log EC50)” value (HIV strain Y181C) was 7.68, the “L100I + K103N pEC50 (−log EC50)” value (HIV strain L100I + K103N) was 6.83 and the “K103N + Y181C pEC50 (−log EC50)” value (HIV strain K103N + Y181C) was 6.97. For the same compound, the “IIIB pEC50 (−log EC50)” value [1, 3] was 8.48 and the “MDR pEC50 (−log EC50)” value [2] was 5.32.
For Cc1cc(C=CC#N)cc(C)c1Nc1cc(CN2CCOCC2)nc(Nc2ccc(C#N)cc2)n1 (mixture of isomers) [Compound 12], the “Y181C pEC50 (−log EC50)” value (HIV strain Y181C) was 7.28, the “L100I + K103N pEC50 (−log EC50)” value (HIV strain L100I + K103N) was 6.50 and the “K103N + Y181C pEC50 (−log EC50)” value (HIV strain K103N + Y181C) was 6.78. For the same compound, the “IIIB pEC50 (−log EC50)” value [1] was 8.62 and the “MDR pEC50 (−log EC50)” value [2] was 5.57.

Source: patent US9006243B2, “HIV inhibiting 6-substituted pyrimidines” (Janssen R&D Ireland, priority 2006, dated 2015)
